Results: patent publication US20250034579A1, “METHODS AND COMPOSITIONS FOR GENETICALLY MODIFYING HUMAN GUT MICROBES” (Cornell University, priority 2021, published 2025)

What was measured:
[1] = test system: Bacteroides and Erysipelotrichaceae microbes; assay: Growth curve of bacteria in the presence of bile acids (OD600); format: cell-based; conditions: 500 μM bile acid, DMSO control; 2 Bacteroides, 7 Erysipelotrichaceae
Procedure: Bacteroides (Bacteroides fragilis 3112 (Bac1) and Bacteroides vulgatus ATCC 8482 (Bac2)) and Erysipelotrichaceae (Clostridium ramosum ATCC 25554 (Ery1), Erysipelatoclostridium ramosum strain 113-1 (Ery2), Clostridium ramosum DSM 24812 (Ery3), Clostridium ramosum DSM 1402 (Ery4), HM-173 Clostridium innocuum 6_1_30 (Ery5), Clostridium innocuum DSM 22910 (Ery6) and Holdemania filiformis DSM 12042 (Ery7)) were streaked from a glycerol stock onto TSAB agar plates and incubated anaerobically for ˜ 24 h at 37° C. Three colonies were inoculated into 1 ml of Mega broth and were anaerobically cultured for overnight at 37° C. Cells were diluted 1,000-fold into Mega broth to reach late-log phase. Then 5 μL of the culture was resuspended in 145 μL broth, loaded into a 96-well plated, and incubated anaerobically at 37° C. in Multiskan Sky Microplate Spectrophotometer (Thermo Fisher Scientific). Four bile acids (CA, 7-oxoCA, DCA, and 3-oxoDCA, 500 μM each) were tested with their solvent DMSO as control. Optical densities at 600 nm (OD600) were recorded every 60 min until the cultures reached the stationary phase. Bacterial growth curves were performed in triplicate with each biological replicate deriving from a single colony.

[2] = test system: Erysipelotrichaceae microbes; format: cell-based; conditions: in vitro consortium of 2 Bacteroides and 7 Erysipelotrichaceae; DCA at 0, 250 and 500 μM
[3] = test system: Bacteroidia (Prevotella and Bacteroides) microbes; assay: Antibiotics test of Gram-negative Bacteroidia strains on agar plates; format: cell-based; conditions: 66 Bacteroidia strains; TSAB plates with 15 μg/mL thiamphenicol (or MICs)
[4] = SPF mice; drinking water with thiamphenicol 15 μg/ml and erythromycin 10 μg/ml

| Compound | resistance of Erysipelotrichaceae microbes versus Bacteroides microbes (growth curve) [1] | expansion of Erysipelotrichaceae microbes (relative fold change by qPCR) [2] | resistance against thiamphenicol [3] | accumulation of supplemented antibiotic in the feces [4] |
| --- | --- | --- | --- | --- |
| C[C@H](CCC(=O)O)[C@H]1CC[C@H]2[C@@H]3CC[C@@H]4C[C@H](O)CC[C@]4(C)[C@H]3C[C@H](O)[C@]12C [DCA, deoxycholic acid] | more resistant | drives expansion | – | – |
| C[C@H](CCC(=O)O)[C@H]1CC[C@H]2[C@@H]3CC[C@@H]4CC(=O)CC[C@]4(C)[C@H]3C[C@H](O)[C@]12C [3-oxo DCA] | more resistant | – | – | – |
| CS(=O)(=O)c1ccc([C@@H](O)[C@@H](CO)NC(=O)C(Cl)Cl)cc1 [thiamphenicol] | – | – | not resistant | ~5 pmol/mg |
